The supplement of paper PMC10307832

Tests used:
Experiment in all cases: relative viability (nuclei count vs DMSO), 5 days (fraction); higher = more cells survive
QS11 + Navitoclax = compound: C1CC2=C(C1)C=C(C=C2)OC3=NC(=C4C(=N3)N(C=N4)CC5=CC=C(C=C5)C6=CC=CC=C6)N[C@@H](CC7=CC=CC=C7)CO [QS11] + CC1(C)CCC(c2ccc(Cl)cc2)=C(CN2CCN(c3ccc(C(=O)NS(=O)(=O)c4ccc(N[C@H](CCN5CCOCC5)CSc5ccccc5)c(S(=O)(=O)C(F)(F)F)c4)cc3)CC2)C1 [Navitoclax] (partner 0.5 µM)
Method in brief: (§1)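 Five library-drug doses in √10 steps were combined with a fixed anchor-drug dose, or a single drug was given alone, by pin tool to lung cancer cell lines in 1536-well plates the day after seeding. Nuclei were stained and counted after 5 days. Relative viability is the nuclei count in treated wells over that in vehicle wells, taken as the median of duplicate plates.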

[1] = compound: C[As](C)SC[C@H](NC(=O)CC[C@H](N)C(=O)O)C(=O)NCC(=O)O [Darinaparsin] + CC(=O)Nc1cccc(-n2c(=O)n(C3CC3)c(=O)c3c(Nc4ccc(I)cc4F)n(C)c(=O)c(C)c32)c1 [Trametinib] (partner 0.02 µM)
Method in brief: as §1

AZ628 + OSI-027 = compound: CC1=C(C=C(C=C1)NC(=O)C2=CC(=CC=C2)C(C)(C)C#N)NC3=CC4=C(C=C3)N=CN(C4=O)C [AZ628] + COc1cccc2cc(-c3nc([C@H]4CC[C@H](C(=O)O)CC4)n4ncnc(N)c34)[nH]c12 [OSI-027] (partner 0.5 µM)
Method in brief: as §1

[2] = compound: C[As](C)SC[C@H](NC(=O)CC[C@H](N)C(=O)O)C(=O)NCC(=O)O [Darinaparsin] + C[C@]1(O)C[C@@H](c2nc(-c3ccc4ccc(-c5ccccc5)nc4c3)c3c(N)nccn32)C1 [Linsitinib] (partner 1 µM)
Method in brief: as §1

Cell Line	relative viability (QS11 + Navitoclax; first compound 0.08 µM)	relative viability (QS11 + Navitoclax; first compound 0.253 µM)	relative viability (QS11 + Navitoclax; first compound 2.53 µM)	relative viability (QS11 + Navitoclax; first compound 8 µM)	relative viability ([1]; first compound 0.08 µM)	relative viability ([1]; first compound 0.8 µM)	relative viability ([1]; first compound 2.53 µM)	relative viability ([1]; first compound 8 µM)	relative viability (AZ628 + OSI-027; first compound 0.08 µM)	relative viability (AZ628 + OSI-027; first compound 0.253 µM)	relative viability (AZ628 + OSI-027; first compound 0.8 µM)	relative viability (AZ628 + OSI-027; first compound 2.53 µM)	relative viability (AZ628 + OSI-027; first compound 8 µM)	relative viability ([2]; first compound 0.08 µM)	relative viability ([2]; first compound 0.8 µM)	relative viability ([2]; first compound 2.53 µM)	relative viability ([2]; first compound 8 µM)	relative viability (QS11 + Navitoclax; first compound 0.8 µM)
NCI-H1944	1.06	1.1	1.07	0.973	0.404	0.401	0.371	0.408	0.439	0.335	0.331	0.319	0.301	1.14	1.3	1.23	1.35	–
SK-LU-1	0.795	0.871	0.487	0.479	0.625	0.401	0.382	0.521	–	0.315	0.276	0.33	0.208	1.35	0.976	1.07	1.35	0.646
NCI-H1755	1.03	0.994	0.898	0.834	0.811	0.795	0.857	0.844	0.683	0.74	0.781	0.636	0.575	1.07	0.969	1.02	1.13	0.531
NCI-H650	–	–	–	–	0.856	1.01	1.04	0.956	0.664	0.687	0.766	0.689	0.678	1.26	0.9	0.801	0.871	–
SW 1573	0.937	0.795	0.842	0.564	0.589	0.516	0.58	0.744	0.669	0.555	0.359	0.362	0.26	0.935	0.811	0.874	0.906	0.9
NCI-H322M	1.21	1.21	1.35	1.26	0.525	0.505	0.495	0.511	0.503	0.534	0.541	0.532	0.482	1.05	0.998	0.736	0.956	1.22
ABC-1	–	–	–	–	–	–	–	–	0.644	0.402	0.53	0.491	0.297	0.801	0.849	0.735	1.04	–
NCI-H2342	–	–	–	–	0.966	0.843	0.789	0.73	0.717	0.589	0.569	0.64	0.669	–	–	–	–	–
NCI-H1703	1.41	1.11	1.3	1.35	–	–	–	–	–	–	–	–	–	1.42	0.774	0.797	0.799	1.18
NCI-H1563	–	–	–	–	–	–	–	–	0.787	0.726	0.718	0.788	0.792	1.23	1.14	1.21	1.3	–
NCI-H1299	1.04	1.07	0.923	0.839	–	–	–	–	–	–	–	–	–	1.1	1	0.912	1.2	1.03
NCI-H2170	0.575	0.584	0.605	0.695	1.17	0.955	0.926	1.18	0.836	0.676	0.717	0.749	0.578	–	–	–	–	0.572
NCI-H522	–	–	–	–	0.704	0.888	0.682	0.816	0.799	0.668	0.658	0.644	0.641	–	–	–	–	–
NCI-H1648	–	–	–	–	–	0.445	–	0.408	0.254	0.276	0.253	0.255	0.244	–	–	–	–	–
A549	1.2	1.37	1.06	0.808	–	–	–	–	–	–	–	–	–	0.756	0.612	0.389	0.632	1.21
NCI-H358	–	–	–	–	0.112	0.129	0.134	0.145	0.647	0.602	0.403	0.354	0.286	0.753	0.601	0.665	0.68	–
EBC-1	0.387	0.352	0.363	0.393	–	–	–	–	–	–	–	–	–	1.12	0.942	0.864	1.15	0.374
IA-LM	0.762	0.828	0.5	0.614	–	–	–	–	–	–	–	–	–	0.949	0.8	0.533	0.681	0.69
ChaGo-K-1	–	1.01	1.66	1.21	0.914	0.862	0.785	0.984	0.575	0.525	0.496	0.556	0.388	–	–	–	–	1.42
LCLC-103H	–	–	–	–	0.69	0.659	0.675	0.765	0.418	0.438	0.531	0.403	0.423	1.12	1.05	0.936	1.24	–
NCI-H1650	1.18	1.12	1.1	1.2	0.915	0.49	0.593	0.636	0.642	0.793	0.666	0.557	0.458	–	–	–	–	1.07
